Assay results taken from PMC7701510, “Identification of HN252 as a potent inhibitor of protein phosphatase PPM1B” (Journal of Cellular and Molecular Medicine, 2020).
Entries after “also recorded” stand apart in the source; their conditions may differ.

Columns and labels:
[1] = tested on: HL7702 cells with PPM1B shRNA; test: Phospho Explorer Antibody Microarray, PPM1B knockdown plus HN252; details: in the presence of HN252
Procedure: Phosphorylation profiling was performed by using the Phospho Explorer Antibody Microarray from Full Moon BioSystems, Inc (Sunnyvale, CA), according to the protocol which was previously described. ^24 In brief, cell lysates obtained from HL7702 cells treated by HN252 or DMSO for different hours or transfected with lentiviral vectors carrying shRNAs for 36 h were biotinylated with the Antibody Array Assay Kit (Full Moon BioSystems, Inc), and the data were analysed with the GenePixTM Pro 4.0 image analysis software.

SSH2 = target: T1, SSH2 (Homo sapiens, UniProt Q76I76); test: pNPP hydrolysis phosphatase assay (selectivity panel); type: biochemical; details: pNPP as substrate
T1 sequence (Q76I76 1-1423): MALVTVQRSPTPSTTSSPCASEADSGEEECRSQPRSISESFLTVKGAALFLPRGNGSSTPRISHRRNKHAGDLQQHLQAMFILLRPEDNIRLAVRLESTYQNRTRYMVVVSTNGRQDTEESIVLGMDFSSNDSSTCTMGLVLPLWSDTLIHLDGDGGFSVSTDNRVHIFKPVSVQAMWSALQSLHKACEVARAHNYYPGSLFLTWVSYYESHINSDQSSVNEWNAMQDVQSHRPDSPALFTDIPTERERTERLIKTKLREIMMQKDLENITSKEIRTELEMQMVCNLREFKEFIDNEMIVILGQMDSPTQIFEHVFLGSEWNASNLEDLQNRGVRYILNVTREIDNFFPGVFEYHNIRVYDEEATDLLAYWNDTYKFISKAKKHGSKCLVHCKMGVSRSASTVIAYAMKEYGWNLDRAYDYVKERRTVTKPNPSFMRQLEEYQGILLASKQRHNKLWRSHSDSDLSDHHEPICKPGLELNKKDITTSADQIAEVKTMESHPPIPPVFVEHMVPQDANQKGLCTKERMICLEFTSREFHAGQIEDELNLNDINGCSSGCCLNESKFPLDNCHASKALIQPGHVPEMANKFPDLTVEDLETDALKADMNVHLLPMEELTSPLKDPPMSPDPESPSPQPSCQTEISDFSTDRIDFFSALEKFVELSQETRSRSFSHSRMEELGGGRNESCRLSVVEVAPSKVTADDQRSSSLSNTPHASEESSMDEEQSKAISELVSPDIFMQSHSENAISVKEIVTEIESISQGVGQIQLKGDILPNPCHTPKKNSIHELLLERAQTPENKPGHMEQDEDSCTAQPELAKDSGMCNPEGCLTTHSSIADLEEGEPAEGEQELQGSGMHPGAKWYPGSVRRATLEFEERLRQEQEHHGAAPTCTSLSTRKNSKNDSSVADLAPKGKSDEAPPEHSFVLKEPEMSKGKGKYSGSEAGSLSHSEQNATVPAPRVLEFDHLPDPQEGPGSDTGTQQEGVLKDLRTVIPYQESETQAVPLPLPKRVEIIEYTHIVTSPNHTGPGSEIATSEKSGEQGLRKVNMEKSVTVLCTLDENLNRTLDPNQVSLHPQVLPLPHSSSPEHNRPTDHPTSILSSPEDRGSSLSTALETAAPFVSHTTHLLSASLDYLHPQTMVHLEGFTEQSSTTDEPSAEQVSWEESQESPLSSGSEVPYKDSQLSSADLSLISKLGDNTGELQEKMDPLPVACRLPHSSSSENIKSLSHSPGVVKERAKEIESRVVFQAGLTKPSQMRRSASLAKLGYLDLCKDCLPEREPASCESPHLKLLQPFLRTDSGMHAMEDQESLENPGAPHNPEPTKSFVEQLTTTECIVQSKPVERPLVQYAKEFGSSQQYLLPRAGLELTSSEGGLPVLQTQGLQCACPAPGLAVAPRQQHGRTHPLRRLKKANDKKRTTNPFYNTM

LYP = target: T2, LYP (Homo sapiens, UniProt Q9Y2R2); test: as above; type: biochemical; details: pNPP as substrate
T2 sequence (Q9Y2R2 1-807): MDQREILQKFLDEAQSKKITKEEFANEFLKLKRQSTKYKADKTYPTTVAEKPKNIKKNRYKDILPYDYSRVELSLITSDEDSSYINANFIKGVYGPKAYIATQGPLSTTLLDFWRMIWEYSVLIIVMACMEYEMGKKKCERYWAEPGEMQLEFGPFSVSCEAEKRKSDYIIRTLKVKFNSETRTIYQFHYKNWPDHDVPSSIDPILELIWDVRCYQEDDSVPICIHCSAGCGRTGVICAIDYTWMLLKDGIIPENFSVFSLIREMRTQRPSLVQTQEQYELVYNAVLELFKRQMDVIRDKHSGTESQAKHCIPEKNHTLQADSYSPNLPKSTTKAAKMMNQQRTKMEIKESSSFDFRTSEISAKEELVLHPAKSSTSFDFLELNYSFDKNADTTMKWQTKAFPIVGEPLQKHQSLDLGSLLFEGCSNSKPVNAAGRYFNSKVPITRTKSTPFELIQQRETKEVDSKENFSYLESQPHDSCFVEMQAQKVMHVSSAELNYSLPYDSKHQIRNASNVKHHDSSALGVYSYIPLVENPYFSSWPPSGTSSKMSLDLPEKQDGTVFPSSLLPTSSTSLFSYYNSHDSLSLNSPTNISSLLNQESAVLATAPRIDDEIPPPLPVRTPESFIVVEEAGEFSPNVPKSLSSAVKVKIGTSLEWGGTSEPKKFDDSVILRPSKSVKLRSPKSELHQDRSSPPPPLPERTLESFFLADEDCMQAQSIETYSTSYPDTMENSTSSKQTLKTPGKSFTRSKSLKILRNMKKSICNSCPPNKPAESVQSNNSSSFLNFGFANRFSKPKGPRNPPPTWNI

PPM1A = target: T3, PPM1A (Homo sapiens, UniProt P35813); test: as above; type: biochemical
T3 sequence (P35813 1-382): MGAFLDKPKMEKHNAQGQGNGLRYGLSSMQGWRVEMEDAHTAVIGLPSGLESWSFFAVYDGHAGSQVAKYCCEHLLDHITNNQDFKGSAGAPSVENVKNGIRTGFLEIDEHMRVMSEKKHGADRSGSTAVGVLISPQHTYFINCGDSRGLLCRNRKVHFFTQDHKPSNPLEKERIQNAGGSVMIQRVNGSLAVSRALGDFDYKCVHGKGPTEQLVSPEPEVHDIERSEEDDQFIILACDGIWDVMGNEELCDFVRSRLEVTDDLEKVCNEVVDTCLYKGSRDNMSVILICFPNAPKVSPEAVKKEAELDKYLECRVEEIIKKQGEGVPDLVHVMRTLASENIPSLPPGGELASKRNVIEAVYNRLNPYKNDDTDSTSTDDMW

HL7702 cells = test: Phospho Explorer Antibody Microarray, HN252 treatment; type: cell-based; details: 2-hours exposure, HN252 5 μM
YPH = YPH (Yersinia enterocolitica, UniProt P15273); type: biochemical
PRL = test: pNPP hydrolysis phosphatase assay (selectivity panel); type: biochemical; details: pNPP as substrate

YPH, sequence (P15273 163-468 limits assumed): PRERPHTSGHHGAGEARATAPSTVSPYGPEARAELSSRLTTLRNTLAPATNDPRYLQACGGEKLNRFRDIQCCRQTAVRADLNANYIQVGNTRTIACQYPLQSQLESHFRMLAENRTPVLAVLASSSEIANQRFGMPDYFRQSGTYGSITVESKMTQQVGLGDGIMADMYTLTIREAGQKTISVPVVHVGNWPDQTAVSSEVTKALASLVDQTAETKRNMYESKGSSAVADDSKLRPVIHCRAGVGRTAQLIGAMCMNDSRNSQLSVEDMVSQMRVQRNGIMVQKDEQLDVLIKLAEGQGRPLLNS

SMILES: Nc1cc(-c2ccc(-c3ccc(O)c(O)c3)cc2)ccc1C(=O)O [HN252]
- number of proteins with further enhanced phosphorylation compared to PPM1B knockdown (>1.5-fold) [1]: 8
- IC50 (SSH2): 55.1 ± 2.88 µM
- IC50 (LYP): 98.2 ± 11.7 µM
- inhibition pattern (PPM1A; Lineweaver-Burk plot, pNPP hydrolysis, pH 7.0, 37°C, 0.4 μM PPM1A): non-competitive inhibition; also recorded: non‐competitive inhibitor
- IC50 (PPM1A; pNPP as substrate): 0.72 ± 0.22 µM
- number of proteins with enhanced phosphorylation (1.5-fold vs control) also elevated in PPM1B knockdown cells (HL7702 cells): 30
- IC50 (YPH): 77.2 ± 7.95 µM
- IC50 (PRL): > 50 µM
